Test results reported in patent US11919896B2, “[1,2,4]triazolo[1,5-a]pyridine compound as JAK inhibitor and use thereof” (Zhuhai United Laboratories Co., Ltd., priority 2018, dated 2024).
pIC50: −log10 of the molar value. Values joined by “and” are separate entries in the source; they are usually repeats but may differ in a detail not shown here. Identical values can stand only once. Like-named read-outs stand apart in the source and are kept apart here. Marks after values point to notes of the source that are not given here.

Assays:
TYK2 = TYK2 (Homo sapiens (Human), UniProt P29597); test: In vitro kinase activity test, TYK2(h) enzyme reaction; type: biochemical
Description: (§1) Recombinant human JAK1, JAK2, JAK3, Tyk2 protease, most of the apparatuses and reagents were supplied by Eurofins (UK).
(§2) All the compounds were prepared into 100% DMSO solution and the concentration reached final measured concentration of 50 times. The test compound was diluted by a 3-fold concentration gradient, and the final concentration was 9 concentrations from 10 μM to 0.001 μM. The content of DMSO in the detect reaction was 2%. The stock solution of this compound was added into wells as a first component, then the other components were added as the following detailed process.
Enzyme Reaction of TYK2(h)
(§3) Mixture of Mg/ATP was added to start reaction, which was stopped by adding 0.5% phosphoric acid after 40 minutes incubation.

JAK1 = JAK1 (Homo sapiens (Human), UniProt P23458); test: In vitro kinase activity test, JAK1(h) enzyme reaction; type: biochemical
Description: (§4) Experiment 1: In Vitro Test of Activities of Jak1, Jak2, Jak3, Tyk2 Kinases
as §1, §2
Enzyme Reaction of JAK1(h)
Mixture of Mg/ATP was added to start reaction, which was stopped by adding 0.5% phosphoric acid after 40 minutes incubation at room temperature.

JAK2 = JAK2 (Homo sapiens (Human), UniProt O60674); test: In vitro kinase activity test, JAK2(h) enzyme reaction; type: biochemical
Description: as §4, §1, §2
Enzyme Reaction of JAK2(h)
as §3

JAK3 = JAK3 (Homo sapiens (Human), UniProt P52333); test: In vitro kinase activity test, JAK3(h) enzyme reaction; type: biochemical
Description: as §1, §2
Enzyme Reaction of JAK3(h)
as §3

[1] = system: collagen-induced arthritis (CIA) in mice; type: in vivo, DBA/1 mice; parameters: key to Average clinical score: score 0-4 per limb, max 16 per animal
Description: Experiment 3: In Vivo Efficacy Study of Collagen-Induced Arthritis (CIA) in Mice
1. Type II Collagen/Complete Freund's Adjuvant Immune
Preparation of acetic acid: 2N acetic acid was diluted to 100 mM, filtered by 0.22 micron filter membrane, and stored at 4° C.
Bovine type 2 collagen (CII) was dissolved in 100 mM acetic acid solution, then stored overnight at 4° C. Final concentration of the collagen is 8 mg/ml.
Preparation of emulsion: the overnight stored CII solution was mixed with equal volume of complete Freund's adjuvant, and homogenized on ice on a high-speed homogenizer at 30,000 revolutions per minute for approximately 60 minutes until the solution forms a stable emulsion.
2. Induction of Arthritis:
Mice were randomly divided into different treatment groups. The day for the first immunization is recorded as day 0, and the subsequent days are marked in order.
DBA/1 mice were anesthetized with isoflurane and injected with […] prepared collagen emulsion (containing […] CII) subcutaneously (2-3 cm from the root of the tail). At day 21, the tail was injected with the same volume of collagen emulsion in the same way. The mice in the normal group was not immunized.
3. Designs of Administration and Dosages
At day 28, when average clinical score is about […] with moderate incidence were selected ad randomly divided into 5 treatment groups based on body weights and scores, with each group having 8 mice.
Dexamethasone (Dex.) was used as a reference drug for measuring whether the model was successfully established, with a dose of 0.3 mg/kg (a commonly used dose in a CIA model). […] They were administered twice a day for a total of 14 days.
4. Measuring of Incidence Index of Arthritis
Clinical observation: from 7 days before immunization to the 21st day after immunization, the basic health status and weight changes of DBA/1 mice was observed daily (recorded once a week). After the 22nd day, the health status, the incidence circumstances, and weight changes of the mice was observed every day (recorded at least three times a week) until the end of the experiment.
Clinical scoring: the incidence of the mice was observed every day after boosting the immune function. After the mice was attacked (showing clinical symptoms of arthritis), the incidence was scored from 0-4 as scoring standard according to different levels of the disease (redness, joint deformation). The highest score for each limb is 4, and the highest score for each animal is 16. The scoring was performed three times a week.
The experimental data is expressed as mean standard error (Mean SEM), and the area under the curve (AUC) is analyzed by one-way ANOVA. P<0.05 is considered to be significant.

[2] = system: adjuvant-induced arthritis rat model; conditions: AIA rats, 30 mg/kg p.o. bid
[3] = CIA mice, 0.3 mg/kg p.o. qd, day 21
[4] = CIA mice, 0.3 mg/kg p.o. qd, day 24
[5] = CIA mice, 0.3 mg/kg p.o. qd, day 27
[6] = CIA mice, 0.3 mg/kg p.o. qd, day 28
[7] = CIA mice, 0.3 mg/kg p.o. qd, day 29
[8] = CIA mice, 0.3 mg/kg p.o. qd, day 31
[9] = CIA mice, 0.3 mg/kg p.o. qd, day 31, listed as Dex
[10] = CIA mice, 0.3 mg/kg p.o. qd, day 34
[11] = CIA mice, 0.3 mg/kg p.o. qd, day 36
[12] = CIA mice, 0.3 mg/kg p.o. qd, day 38
[13] = CIA mice, 0.3 mg/kg p.o. qd, day 41

JAK2, sequence (O60674 whole entry): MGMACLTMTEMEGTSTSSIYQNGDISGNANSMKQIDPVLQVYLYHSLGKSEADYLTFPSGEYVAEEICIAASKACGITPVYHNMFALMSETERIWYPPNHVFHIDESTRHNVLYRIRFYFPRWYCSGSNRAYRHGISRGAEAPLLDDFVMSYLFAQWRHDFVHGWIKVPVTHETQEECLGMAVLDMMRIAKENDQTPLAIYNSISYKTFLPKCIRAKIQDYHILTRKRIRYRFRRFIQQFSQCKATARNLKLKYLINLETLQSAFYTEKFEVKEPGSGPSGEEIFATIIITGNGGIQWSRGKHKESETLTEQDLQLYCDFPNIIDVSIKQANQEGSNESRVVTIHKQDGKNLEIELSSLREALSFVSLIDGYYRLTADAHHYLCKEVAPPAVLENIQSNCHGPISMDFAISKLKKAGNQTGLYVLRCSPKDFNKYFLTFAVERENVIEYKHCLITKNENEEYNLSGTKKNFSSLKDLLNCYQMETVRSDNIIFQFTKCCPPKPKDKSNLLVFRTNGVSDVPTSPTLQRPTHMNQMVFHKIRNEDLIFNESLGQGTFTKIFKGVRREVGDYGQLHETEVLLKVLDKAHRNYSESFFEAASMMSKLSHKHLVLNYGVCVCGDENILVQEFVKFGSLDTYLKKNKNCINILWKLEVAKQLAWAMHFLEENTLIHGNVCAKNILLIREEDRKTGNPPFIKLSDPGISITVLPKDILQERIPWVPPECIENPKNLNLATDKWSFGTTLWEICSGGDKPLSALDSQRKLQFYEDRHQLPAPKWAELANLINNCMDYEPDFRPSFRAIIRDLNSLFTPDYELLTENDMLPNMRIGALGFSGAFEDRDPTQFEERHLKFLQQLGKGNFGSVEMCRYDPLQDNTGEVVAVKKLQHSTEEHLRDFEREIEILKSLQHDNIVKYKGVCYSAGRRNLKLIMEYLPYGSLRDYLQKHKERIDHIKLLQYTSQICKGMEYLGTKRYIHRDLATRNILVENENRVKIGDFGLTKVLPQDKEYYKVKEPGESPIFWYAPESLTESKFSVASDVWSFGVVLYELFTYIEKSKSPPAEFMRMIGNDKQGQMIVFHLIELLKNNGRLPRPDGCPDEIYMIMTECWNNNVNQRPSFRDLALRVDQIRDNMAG
JAK1, sequence (P23458 whole entry): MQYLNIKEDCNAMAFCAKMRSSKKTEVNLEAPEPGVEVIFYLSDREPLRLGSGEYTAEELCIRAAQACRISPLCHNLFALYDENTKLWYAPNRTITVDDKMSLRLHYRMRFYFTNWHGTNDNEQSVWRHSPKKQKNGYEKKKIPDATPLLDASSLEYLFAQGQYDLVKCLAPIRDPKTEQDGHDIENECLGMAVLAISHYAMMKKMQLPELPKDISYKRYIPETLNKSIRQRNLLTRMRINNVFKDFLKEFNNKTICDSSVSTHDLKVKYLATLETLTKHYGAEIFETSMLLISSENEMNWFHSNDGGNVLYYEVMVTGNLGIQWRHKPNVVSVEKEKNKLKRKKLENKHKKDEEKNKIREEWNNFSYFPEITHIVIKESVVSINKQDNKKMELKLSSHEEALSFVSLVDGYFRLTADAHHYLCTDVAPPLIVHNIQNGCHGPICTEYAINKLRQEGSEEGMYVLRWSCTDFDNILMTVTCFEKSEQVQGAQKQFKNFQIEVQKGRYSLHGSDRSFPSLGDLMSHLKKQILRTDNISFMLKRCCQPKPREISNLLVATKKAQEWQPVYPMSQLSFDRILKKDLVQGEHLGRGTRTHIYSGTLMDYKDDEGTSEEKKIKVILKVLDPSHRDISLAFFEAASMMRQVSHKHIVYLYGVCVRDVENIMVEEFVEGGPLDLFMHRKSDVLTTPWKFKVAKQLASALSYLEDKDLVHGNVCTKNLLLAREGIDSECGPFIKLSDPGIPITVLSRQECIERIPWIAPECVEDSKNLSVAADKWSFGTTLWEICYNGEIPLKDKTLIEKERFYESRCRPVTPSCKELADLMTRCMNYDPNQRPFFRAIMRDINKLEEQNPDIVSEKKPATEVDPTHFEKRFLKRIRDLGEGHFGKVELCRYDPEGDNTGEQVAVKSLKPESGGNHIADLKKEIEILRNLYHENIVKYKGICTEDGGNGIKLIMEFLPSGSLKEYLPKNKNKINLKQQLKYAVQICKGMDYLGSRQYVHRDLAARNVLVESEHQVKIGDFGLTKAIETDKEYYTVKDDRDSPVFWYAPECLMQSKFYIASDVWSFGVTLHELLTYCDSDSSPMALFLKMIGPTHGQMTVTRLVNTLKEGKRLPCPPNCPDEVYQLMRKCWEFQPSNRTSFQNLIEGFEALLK
TYK2, sequence (P29597 whole entry): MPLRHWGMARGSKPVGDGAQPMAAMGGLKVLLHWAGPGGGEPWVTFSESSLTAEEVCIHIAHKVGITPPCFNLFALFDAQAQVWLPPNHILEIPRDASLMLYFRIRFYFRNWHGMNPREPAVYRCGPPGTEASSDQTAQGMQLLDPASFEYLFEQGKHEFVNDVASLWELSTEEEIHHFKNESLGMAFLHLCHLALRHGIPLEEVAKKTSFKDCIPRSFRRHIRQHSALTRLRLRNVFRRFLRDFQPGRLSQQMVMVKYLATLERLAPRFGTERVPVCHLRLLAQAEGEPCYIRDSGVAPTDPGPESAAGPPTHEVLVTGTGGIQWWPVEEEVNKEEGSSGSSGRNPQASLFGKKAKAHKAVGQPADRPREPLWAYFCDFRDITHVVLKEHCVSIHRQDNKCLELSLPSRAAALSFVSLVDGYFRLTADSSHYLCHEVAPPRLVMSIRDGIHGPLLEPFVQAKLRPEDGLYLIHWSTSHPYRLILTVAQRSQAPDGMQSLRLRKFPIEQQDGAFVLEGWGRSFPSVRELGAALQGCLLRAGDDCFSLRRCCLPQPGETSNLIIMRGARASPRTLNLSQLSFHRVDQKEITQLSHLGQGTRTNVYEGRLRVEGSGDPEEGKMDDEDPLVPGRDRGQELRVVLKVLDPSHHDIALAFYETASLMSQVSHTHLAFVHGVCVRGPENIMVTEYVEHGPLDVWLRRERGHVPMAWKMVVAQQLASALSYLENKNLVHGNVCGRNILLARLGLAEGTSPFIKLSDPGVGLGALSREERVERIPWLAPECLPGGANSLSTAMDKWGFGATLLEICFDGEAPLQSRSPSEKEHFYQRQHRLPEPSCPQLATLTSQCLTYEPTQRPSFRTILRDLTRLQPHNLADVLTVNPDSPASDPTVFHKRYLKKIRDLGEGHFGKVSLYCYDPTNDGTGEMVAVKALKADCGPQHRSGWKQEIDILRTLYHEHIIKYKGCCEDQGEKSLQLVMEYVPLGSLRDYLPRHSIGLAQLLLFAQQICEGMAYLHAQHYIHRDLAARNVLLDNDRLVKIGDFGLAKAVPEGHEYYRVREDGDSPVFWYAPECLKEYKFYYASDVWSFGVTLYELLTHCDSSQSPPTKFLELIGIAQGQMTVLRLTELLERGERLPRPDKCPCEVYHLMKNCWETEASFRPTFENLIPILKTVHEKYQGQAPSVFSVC
JAK3, sequence (P52333 whole entry): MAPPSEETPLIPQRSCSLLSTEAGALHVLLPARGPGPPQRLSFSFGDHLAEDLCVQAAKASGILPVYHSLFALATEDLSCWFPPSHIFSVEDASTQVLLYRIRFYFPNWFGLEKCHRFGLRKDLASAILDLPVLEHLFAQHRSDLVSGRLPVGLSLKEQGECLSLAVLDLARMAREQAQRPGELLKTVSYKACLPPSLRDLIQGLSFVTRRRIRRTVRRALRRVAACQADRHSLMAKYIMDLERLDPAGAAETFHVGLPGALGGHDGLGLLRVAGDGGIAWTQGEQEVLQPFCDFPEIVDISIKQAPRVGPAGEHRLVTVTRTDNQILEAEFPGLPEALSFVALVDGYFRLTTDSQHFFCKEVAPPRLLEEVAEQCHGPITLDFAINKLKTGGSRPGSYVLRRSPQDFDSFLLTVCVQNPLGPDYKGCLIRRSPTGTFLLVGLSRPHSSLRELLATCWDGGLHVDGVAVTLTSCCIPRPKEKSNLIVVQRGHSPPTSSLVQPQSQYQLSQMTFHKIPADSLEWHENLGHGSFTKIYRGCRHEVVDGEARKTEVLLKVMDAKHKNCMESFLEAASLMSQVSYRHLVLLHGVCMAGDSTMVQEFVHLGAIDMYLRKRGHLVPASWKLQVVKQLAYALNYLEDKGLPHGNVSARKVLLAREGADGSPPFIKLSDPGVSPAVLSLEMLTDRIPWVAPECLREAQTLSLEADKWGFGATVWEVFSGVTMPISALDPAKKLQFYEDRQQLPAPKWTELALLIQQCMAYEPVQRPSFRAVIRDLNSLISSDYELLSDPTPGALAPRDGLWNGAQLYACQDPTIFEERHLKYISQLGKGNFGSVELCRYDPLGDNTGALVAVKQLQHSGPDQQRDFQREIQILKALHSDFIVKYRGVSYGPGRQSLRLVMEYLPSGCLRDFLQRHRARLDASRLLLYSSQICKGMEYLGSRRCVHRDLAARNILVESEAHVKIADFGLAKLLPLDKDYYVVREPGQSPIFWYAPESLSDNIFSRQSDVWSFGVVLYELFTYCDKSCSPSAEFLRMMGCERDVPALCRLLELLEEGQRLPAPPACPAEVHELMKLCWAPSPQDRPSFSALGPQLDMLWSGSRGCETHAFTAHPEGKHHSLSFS

N#CCC(=O)N1CCC2(CCC(c3c(F)ccc4nc(NC(=O)C5CC5)nn34)CC2)CC1 [Compound 10-5]
pIC50 (TYK2): 6.37
pIC50 (JAK1): 6.47
pIC50 (JAK2): 6.09
pIC50 (JAK3): 5.27

O=C(Nc1nc2cccc([C@@H]3CCC4(CCN(C(=O)[C@@H]5CC5(F)F)CC4)C3)n2n1)C1CC1 [Compound 6-8]
pIC50 (TYK2): 6.24
pIC50 (JAK1): 6.42
pIC50 (JAK3): < 5.00

C[C@@H]1C[C@H]2[C@@H]3CCC4=CC(=O)C=C[C@]4(C)[C@@]3(F)[C@@H](O)C[C@]2(C)[C@@]1(O)C(=O)CO [Dexamethasone]
Inhibition rate (clinical score AUC vs blank group) ([1]; CIA mice, 0.3 mg/kg p.o. qd): 97.3%
AUC ± SEM of clinical score (AUC of incidence) ([1]; CIA mice, 0.3 mg/kg p.o. qd, administration period): 1.38 ± 0.81
Average clinical score [1, 3]: 0.00 ± 0.00
Incidence of arthritis [1, 3]: 0%
Average clinical score [1, 4]: 0.00 ± 0.00
Incidence of arthritis [1, 4]: 0%
Average clinical score [1, 5]: about 0.3
Incidence of arthritis [1, 5]: 25%
Average clinical score ([1]; CIA mice, 0.3 mg/kg p.o. qd, day 27, listed as Dex): 0.25 ± 0.16
Average clinical score [1, 6]: 0.50 ± 0.27
Incidence of arthritis [1, 6]: 38%
Average clinical score [1, 7]: 0.25 ± 0.16
Incidence of arthritis [1, 7]: 25%
Average clinical score [1, 8]: 0
Incidence of arthritis [1, 8]: 0%
Average clinical score [1, 9]: 0.00 ± 0.00
Incidence of arthritis [1, 9]: 0%
Average clinical score [1, 10]: 0.00 ± 0.00
Incidence of arthritis [1, 10]: 0%
Average clinical score [1, 11]: 0.00 ± 0.00
Incidence of arthritis [1, 11]: 0%
Average clinical score [1, 12]: 0.00 ± 0.00
Incidence of arthritis [1, 12]: 0%
Average clinical score [1, 13]: 0.00 ± 0.00
Incidence of arthritis [1, 13]: 0%
Inhibition rate (clinical score AUC vs blank group) ([1]; CIA mice, 0.3 mg/kg p.o. qd, listed as Dex): 97.3%
Effect on the weight of mice (comparison between groups) ([1]; mouse, in vivo, po, 0.3 mg/kg): largest weight loss

N#CCCN1CC2(CCC(c3cccc4nc(NC(=O)C5CC5)nn34)CC2)C1 [Compound 1-17]
pIC50 (TYK2): 6.43
pIC50 (JAK1): 7.19
pIC50 (JAK3): < 5.00

O=C(Nc1nc2cccc(-c3ccc(CN4CCS(=O)(=O)CC4)cc3)n2n1)C1CC1 [Filgotinib]
Inhibition rate of total pathological score [2]: 5%
Clinical scoring, average ([2]; day 13): 6.0
Feet volume, average ([2]; day 13): 1.9 mL
Clinical scoring, average ([2]; day 15): 6.6
Feet volume, average ([2]; day 15): 2.2 mL
Clinical scoring, average ([2]; day 17): 6.3
Feet volume, average ([2]; day 17): 2.0** mL
Clinical scoring, average ([2]; day 20): 5.8**
Feet volume, average ([2]; day 20): 1.9**** mL
Clinical scoring, average ([2]; day 22): 5.5***
Feet volume, average ([2]; day 22): 2.0**** mL
Clinical scoring, average ([2]; day 24): 5.4****
Feet volume, average ([2]; day 24): 2.0**** mL
Feet volume, average ([2]; day 27): 1.91 mL and 1.9**** mL
Pathology Scoring: Bone resorption ([2]; day 27, right hind leg): 3.6 ± 0.2
Pathology Scoring: Pannus formation ([2]; day 27, right hind leg): 3.9 ± 0.1
Pathology Scoring: Total score ([2]; day 27, right hind leg): 15.2±0.49 and 15.2 ± 0.5
Pathology Scoring: articular injury ([2]; day 27, right hind leg): 3.7 ± 0.2

O=C(Nc1nc2cccc([C@H]3CCC4(C3)CN(C(=O)[C@@H]3CC3(F)F)C4)n2n1)C1CC1 [Compound 7-7]
pIC50 (TYK2): 6.08
pIC50 (JAK1): 7.20
pIC50 (JAK3): < 5.00

O=C(Nc1nc2cccc(C3CCC4(CC3)CN(C(=O)[C@@H]3CC3(F)F)C4)n2n1)[C@@H]1CC1(F)F [Compound 9-3]
pIC50 (TYK2): 6.98
pIC50 (JAK1): 8.15
pIC50 (JAK2): 6.53
pIC50 (JAK3): < 5.00

O=C(Nc1nc2cccc([C@@H]3CCC4(C3)CN(C(=O)[C@@H]3CC3(F)F)C4)n2n1)C1CC1 [Compound 7-8]
pIC50 (TYK2): 6.39
pIC50 (JAK1): 6.75
pIC50 (JAK3): < 5.00

N#CCN1CC2(CCC(c3cccc4nc(NC(=O)[C@H]5CC5(F)F)nn34)CC2)C1 [Compound 8-9]
pIC50 (TYK2): 5.88
pIC50 (JAK1): 7.28
pIC50 (JAK2): 5.44
pIC50 (JAK3): < 5.00

O=C(Nc1nc2cccc([C@H]3CCC4(CCN(C(=O)[C@@H]5CC5(F)F)CC4)C3)n2n1)C1CC1 [Compound 6-7]
pIC50 (TYK2): 6.08
pIC50 (JAK1): 7.20
pIC50 (JAK3): 5.03

N#CCN1CC2(CCC(c3cccc4nc(NC(=O)[C@@H]5CC5(F)F)nn34)CC2)C1 [Compound 9-6]
pIC50 (TYK2): 5.86
pIC50 (JAK1): 6.36
pIC50 (JAK2): 5.93
pIC50 (JAK3): < 5.00

N#CCC(=O)N1CC2(CCC(F)(c3cccc4nc(NC(=O)C5CC5)nn34)CC2)C1 [Compound 4-6]
pIC50 (TYK2): 6.51
pIC50 (JAK1): 6.77
pIC50 (JAK2): 5.70
pIC50 (JAK3): 5.07

O=C(Nc1nc2cccc(C3CCC4(CC3)CCN(C(=O)[C@@H]3CC3(F)F)C4)n2n1)C1CC1 (some centres unmarked) [Compound 5-8]
pIC50 (TYK2): 6.16
pIC50 (JAK1): 7.12
pIC50 (JAK2): 6.10
pIC50 (JAK3): 5.13

N#CCN1CC2(CCC(c3cccc4nc(NC(=O)C5CC5)nn34)CC2)C1 [Compound 1-16]
pIC50 (TYK2): 6.24
pIC50 (JAK1): 6.94
pIC50 (JAK3): < 5.00

CC(C)(C#N)C(=O)N1CC2(CCC(c3cccc4nc(NC(=O)C5CC5)nn34)CC2)C1 [Compound 1-15]
pIC50 (TYK2): 6.97
pIC50 (JAK1): 7.70
pIC50 (JAK3): 5.01

O=C(Nc1nc2cccc(C3CCC4(CC3)CCN(C(=O)[C@@H]3CC3(F)F)C4)n2n1)C1CC1 (some centres unmarked) [Compound 5-7]
pIC50 (TYK2): 7.17
pIC50 (JAK1): 7.51
pIC50 (JAK2): 6.49
pIC50 (JAK3): 5.24

O=C(Nc1nc2cccc(C3CCC4(CC3)CN(C(=O)[C@@H]3CC3(F)F)C4)n2n1)[C@H]1CC1(F)F [Compound 8-6]
pIC50 (TYK2): 6.90
pIC50 (JAK1): 7.85
pIC50 (JAK2): 6.96
pIC50 (JAK3): 5.12
